Consider one substance from patent publication US9463174B2, “Pharmaceutical composition for the treatment of type-1 diabetes” (priority 2008, dated 2016).

One assay deals with INS-1 cells. Briefly: GABA production and release from insulin-secreting beta-cells (Free Amino Acid Analysis). Format: cell-based. How it is done: In these in vitro assays using GLP-1-secreting and/or insulin-secreting cells, it was shown that the production and secretion of GLP-1 in the gut-derived cells (STC-1) were modulated by GABA, and the production and release of GABA from the beta-cells were also modulated by GLP-1. The specificity of these assays was determined by including the GABAAR antagonists or GLP-1 receptor antagonist in the assays.
The Free Amino Acid Analysis was performed on a Waters Acquity UPLC System. The Waters Acquity UPLC system employed consists of a Binary Solvent Manager, a Sample Manager, a TUV Detector and a Waters Acquity UPLC BEH C18 column (2.1×100 mm). Data was collected, stored and processed using Waters Empower 2 Chromatography software. Drying was done using a Tomy CC-181 Centrifugal Concentrator with a Sargent-Welch Model 8821 Vacuum pump. The operational procedures are as following: an aliquot of the sample was transferred into a 6×55 mm glass culture tube and dried under vacuum using a centrifugal evaporator. After drying, the sample was treated with a redrying solution consisting of methanol:water:triethylamine (2:2:1), vortex-mixed and dried under vacuum for 15 minutes. […] The derivatized amino acids were detected at 254 nm.
GABA concentrations were determined by the Free Amino Acid Analysis. […]

In the next assay the test system is T1D-prone NOD mice. To be noted: monotherapy, Hadjiyanni I et al 2008; cited from earlier work.

With “GLP-1: incretin hormone glucagon-like peptide-1, SEQ ID NO: 1”, the “production and release of GABA from the beta-cells” value in the assay on INS-1 cells was “modulated”. Further, the “efficacy on diabetes onset in T1D-prone NOD mice” value with T1D-prone NOD mice is listed as “only marginally effective”.
